Data: BindingDB's records for doi:10.7270/Q20K28JQ (Dupont Pharmaceuticals, 1996)

Target: T1, Sterol O-acyltransferase 1 (Rattus norvegicus, UniProt O70536)
T1 sequence (O70536 whole entry): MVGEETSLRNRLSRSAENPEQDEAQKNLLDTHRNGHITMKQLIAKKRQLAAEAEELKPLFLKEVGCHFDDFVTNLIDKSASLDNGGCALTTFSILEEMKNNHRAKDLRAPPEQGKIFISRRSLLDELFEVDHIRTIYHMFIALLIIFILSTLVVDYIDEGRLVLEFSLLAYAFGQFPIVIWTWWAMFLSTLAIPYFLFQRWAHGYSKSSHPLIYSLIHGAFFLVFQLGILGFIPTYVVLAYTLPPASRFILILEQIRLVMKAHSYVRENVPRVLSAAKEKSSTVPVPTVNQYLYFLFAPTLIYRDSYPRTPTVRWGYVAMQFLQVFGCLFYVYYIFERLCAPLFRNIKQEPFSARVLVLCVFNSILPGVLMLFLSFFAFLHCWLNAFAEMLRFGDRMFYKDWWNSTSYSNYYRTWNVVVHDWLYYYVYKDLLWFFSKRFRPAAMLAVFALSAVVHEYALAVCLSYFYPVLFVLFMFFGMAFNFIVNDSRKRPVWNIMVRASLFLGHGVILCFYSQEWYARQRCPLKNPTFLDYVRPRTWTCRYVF
Assay: ChEBML_28359
From the text: In vitro inhibition of rat liver microsomal Acyl coenzyme A:cholesterol acyltransferase

IC50	SMILES
55000 nM	CN(C(=O)c1ccc(C#N)cc1)[C@@H]1N(C)C(c2ccc(C#N)cc2)=NC1(C(F)(F)F)C(F)(F)F
1900 nM	CN(C(=O)c1ccc(C#N)cc1)C1N(C)C(c2ccc(C#N)cc2)=NC1(C(F)(F)F)C(F)(F)F (stereo not drawn)
1000 nM	CN(C(=O)c1ccc(C#N)cc1)[C@H]1N(C)C(c2ccc(C#N)cc2)=NC1(C(F)(F)F)C(F)(F)F
